Measured values taken from the NIST ThermoML archive (doi:10.1016/j.jct.2017.09.005).
± gives the expanded uncertainty stated by the source.

Experiments:
[1] = molar heat capacity at saturation pressure; conditions: Liquid, Small sample (50 mg) DSC
[2] = for molar entropy: 101.33 kPa, Small sample (50 mg) DSC; for Critical density: DSC; for Critical temperature: DTA
[3] = 323.14 K, Liquid, Vibrating tube method
[4] = 348.13 K, Liquid, Vibrating tube method
[5] = 373.12 K, Liquid, Vibrating tube method
[6] = 398.12 K, Liquid, Vibrating tube method
[7] = 423.11 K, Liquid, Vibrating tube method
[8] = 448.11 K, Liquid, Vibrating tube method

c1cc[nH]c1 [pyrrole]
molar heat capacity ([1]; 360 K): 143.21 ± 2.5 J/K/mol | molar heat capacity ([1]; 380 K): 148.11 ± 2.6 J/K/mol | molar heat capacity ([1]; 400 K): 152.99 ± 2.7 J/K/mol | molar heat capacity ([1]; 420 K): 157.84 ± 2.7 J/K/mol | molar heat capacity ([1]; 440 K): 162.62 ± 2.8 J/K/mol | molar heat capacity ([1]; 460 K): 167.28 ± 2.9 J/K/mol | molar heat capacity ([1]; 480 K): 171.79 ± 3 J/K/mol | molar heat capacity ([1]; 500 K): 176.14 ± 3.1 J/K/mol | molar heat capacity ([1]; 520 K): 180.48 ± 3.1 J/K/mol | molar heat capacity ([1]; 540 K): 185.06 ± 3.2 J/K/mol | mass density [2, 3]: 943.9 ± 1.9 kg/m3 | mass density [2, 4]: 921.2 ± 1.8 kg/m3 | molar entropy ([2]; 360 K, Liquid): 181.95 ± 4.2 J/K/mol | mass density [2, 5]: 897.8 ± 1.8 kg/m3 | molar entropy ([2]; 380 K, Liquid): 189.82 ± 4.4 J/K/mol | mass density [2, 6]: 873.5 ± 1.7 kg/m3 | molar entropy ([2]; 400 K, Liquid): 197.54 ± 4.6 J/K/mol | molar entropy ([2]; 420 K, Liquid): 205.12 ± 4.8 J/K/mol | mass density [2, 7]: 847.6 ± 1.7 kg/m3 | molar entropy ([2]; 440 K, Liquid): 212.58 ± 4.9 J/K/mol | mass density [2, 8]: 820.2 ± 1.6 kg/m3 | molar entropy ([2]; 460 K, Liquid): 219.91 ± 5.1 J/K/mol | mass density ([2]; 468.11 K, Liquid, Vibrating tube method): 796.1 ± 1.6 kg/m3 | molar entropy ([2]; 480 K, Liquid): 227.13 ± 5.3 J/K/mol | molar entropy ([2]; 500 K, Liquid): 234.23 ± 5.4 J/K/mol | molar entropy ([2]; 520 K, Liquid): 241.22 ± 5.6 J/K/mol | molar entropy ([2]; 540 K, Liquid): 248.11 ± 5.8 J/K/mol | mass density ([2]; 604.6 K, Gas, From heat capacities measured by DSC): 104 ± 11 kg/m3 | mass density ([2]; 623.7 K, Gas, From heat capacities measured by DSC): 148 ± 17 kg/m3 | mass density ([2]; 632.4 K, Gas, From heat capacities measured by DSC): 220 ± 28 kg/m3 | mass density ([2]; 633.5 K, Liquid, From heat capacities measured by DSC): 395 ± 40 kg/m3 | mass density ([2]; 635.4 K, Liquid, From heat capacities measured by DSC): 329 ± 33 kg/m3 | mass density ([2]; 637.8 K, Gas, From heat capacities measured by DSC): 271 ± 33 kg/m3 | Critical density ([2]; Liquid): 314.2 ± 31 kg/m3 | Critical temperature ([2]; Liquid): 638.5 ± 2 K

Cn1cccc1 [N-methylpyrrole]
molar heat capacity ([1]; 360 K): 164.66 ± 2.9 J/K/mol | molar heat capacity ([1]; 380 K): 170.08 ± 2.9 J/K/mol | molar heat capacity ([1]; 400 K): 175.89 ± 3 J/K/mol | molar heat capacity ([1]; 420 K): 182.02 ± 3.2 J/K/mol | molar heat capacity ([1]; 440 K): 188.36 ± 3.3 J/K/mol | molar heat capacity ([1]; 460 K): 194.81 ± 3.4 J/K/mol | molar heat capacity ([1]; 480 K): 201.34 ± 3.5 J/K/mol | molar heat capacity ([1]; 500 K): 208.14 ± 3.6 J/K/mol | molar heat capacity ([1]; 520 K): 215.72 ± 3.7 J/K/mol | mass density [2, 3]: 879.5 ± 1.8 kg/m3 | mass density [2, 4]: 854.2 ± 1.7 kg/m3 | molar entropy ([2]; 360 K, Liquid): 230.1 ± 5.3 J/K/mol | mass density [2, 5]: 828.2 ± 1.7 kg/m3 | molar entropy ([2]; 380 K, Liquid): 239.15 ± 5.6 J/K/mol | mass density [2, 6]: 800.7 ± 1.6 kg/m3 | molar entropy ([2]; 400 K, Liquid): 248.02 ± 5.8 J/K/mol | molar entropy ([2]; 420 K, Liquid): 256.74 ± 6 J/K/mol | mass density [2, 7]: 772.1 ± 1.5 kg/m3 | molar entropy ([2]; 440 K, Liquid): 265.36 ± 6.2 J/K/mol | mass density [2, 8]: 741.1 ± 1.5 kg/m3 | molar entropy ([2]; 460 K, Liquid): 273.88 ± 6.4 J/K/mol | molar entropy ([2]; 480 K, Liquid): 282.3 ± 6.6 J/K/mol | molar entropy ([2]; 500 K, Liquid): 290.66 ± 6.8 J/K/mol | molar entropy ([2]; 520 K, Liquid): 298.96 ± 7 J/K/mol | mass density ([2]; 582.9 K, Gas, From heat capacities measured by DSC): 137 ± 14 kg/m3 | mass density ([2]; 592 K, Gas, From heat capacities measured by DSC): 201 ± 20 kg/m3 | mass density ([2]; 592.7 K, Gas, From heat capacities measured by DSC): 220 ± 22 kg/m3 | mass density ([2]; 593.2 K, Liquid, From heat capacities measured by DSC): 382 ± 38 kg/m3 | mass density ([2]; 596.1 K, Gas, From heat capacities measured by DSC): 257 ± 26 kg/m3 | mass density ([2]; 596.2 K, Liquid, From heat capacities measured by DSC): 328 ± 33 kg/m3 | mass density ([2]; 596.5 K, Liquid, From heat capacities measured by DSC): 337 ± 34 kg/m3 | Critical density ([2]; Liquid): 299.8 ± 30 kg/m3 | Critical temperature ([2]; Liquid): 597 ± 2 K
